Test results as given in patent US20250064993A1, “NOVEL BISPIDINE-BASED METAL CHELATING LIGANDS DISPLAYING GOOD RELAXIVITY” (UNIVERSITE DE STRASBOURG, priority 2021, published 2025).
Each block holds one compound with its values, some of them ahead of it.

Assays:
[1] = Longitudinal relaxivity r1 in water at 60 MHz (WP80 NMR, Bruker); type: physicochemical; conditions: at 25° C., pH = 7.4, and 60 MHz
Procedure: Equimolar quantities of ligand and MnCl2 were dissolved in milli-Q water, the pH was adjusted to 7.4 either with a buffered solution or by adding KOH or HCl to the solution and the samples were heated at 60° C. for 30 min. The absence of free Mn^2+ was checked by the Xylenol orange test.
The relaxivity at 60 MHz is measured with a device commercialized under the brand name WP80 NMR by the firm Brucker according to the following protocol. A millimolar aqueous solution of complex was prepared with Milli-Q water (p<18MΩ). The concentration of Mn^2+-containing samples was checked by ICP-OES and/or NMR by using the bulk magnetic susceptibility. The absence of free Mn^2+ was checked by the Xylenol orange test. For the relaxivity measurement, the temperature was monitored by a VTC91 temperature control unit and maintained by a gas flow. The temperature was determined by previous calibration with a Pt resistance temperature probe.

[2] = Kinetic inertness: half-life by transmetallation of the Mn2+ complex with excess Zn2+, followed by water proton relaxation rates; type: physicochemical; conditions: 25 eq Zn^2+, pH = 6, 37° C.; read-out: Half-life in excess of Zn^2+ (t1/2) (converted)
Procedure: The excess of the exchanging metal ion guarantees the pseudo-first order conditions. For the duration of the experiments (up to 3 months), the samples were stored in a thermostat at 37° C. between the relaxivity measurements. The pH was controlled for each sample at the end of the kinetic measurements to confirm that it remained stable during the experiment. The reactions were monitored by measuring the water proton relaxation rates at 60 MHz on a relaxometer commercialized under the brand name Minispec by the firm a Bruker. The analysis of the experimental data was performed using Visualiseur/Optimiseur running on a MATLAB 8.3.0 (R2014a) platform according to equations (1) and (2): […]
were [MnL]t stands for the total concentration of MnL complex, Kobs stands for the pseudo-first order constant and t1/2 is the half-life of the MnL complex in the given conditions.

[3] = pH of 7.4, 60 MHz, 25° C.; cited from earlier work

Longitudinal relaxivity in water (r1) ([1]; listed as (I-A)): 4.89 mM⁻¹ s⁻¹
SMILES: CN1[C@@H](c2ccccn2)C2(C(=O)O)CN([C@@H](CCCCNC(=O)CCOCCOCCO)C(=O)O)CC(C(=O)O)([C@H]2O)[C@H]1c1ccccn1 [(I-a)]

Longitudinal relaxivity in water (r1) ([1]; listed as (I-D)): 4.03 mM⁻¹ s⁻¹
half-life at 1 mM [2]: 160 days
SMILES: CN1[C@@H](c2ccccn2)C2(C(=O)O)CN([C@@H](CCCCNC(=O)CCOCCOCCO)C(=O)O)CC(C(=O)O)([C@H]2O)[C@H]1c1ccccn1 [(I-d)]

SMILES: CNC[C@H](O)[C@@H](O)[C@H](O)[C@H](O)CO.O=C([O-])CN1CCN(CC(=O)[O-])CCN(CC(=O)O)CCN(CC(=O)[O-])CC1.[Gd+3] [Dotarem, gadoterate meglumine]
relaxivity r1 [3]: 3.7 mM⁻¹ s⁻¹
